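Each compound was tested at five concentrations against cells in 96-well plates for 48 hours. GI50 marks 50% less growth.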 The source made the active and inactive calls. Cut-off read from the data, not from the text of the source: active = GI50 up to about 1.1 µM and inactive = higher.
Key:
Assay in all cases: NCI-60 cell line screen, 48 h
SN12C = tested on: SN12C
NCI-H226 = tested on: NCI-H226
M14 = tested on: M14
A549 = tested on: A549
OVCAR-3 = tested on: OVCAR-3
EKVX = tested on: EKVX
K562 = tested on: K562
KM12 = tested on: KM12
DLD-1 = tested on: DLD-1
LOX IMVI = tested on: LOX IMVI
NCI-H460 = tested on: NCI-H460
SF-295 = tested on: SF-295
HOP-62 = tested on: HOP-62
UACC-62 = tested on: UACC-62
HOP-92 = tested on: HOP-92
DMS-273 = tested on: DMS-273
SF-539 = tested on: SF-539
HCT-116 = tested on: HCT-116
NCI-H522 = tested on: NCI-H522
U-251 = tested on: U-251
HL-60 = tested on: HL-60
KM-20L2 = tested on: KM-20L2
COLO 205 = tested on: COLO 205
IGROV-1 = tested on: IGROV-1
TK-10 = tested on: TK-10
OVCAR-4 = tested on: OVCAR-4
SK-MEL-28 = tested on: SK-MEL-28
SK-MEL-5 = tested on: SK-MEL-5
OVCAR-8 = tested on: OVCAR-8
Malme-3M = tested on: Malme-3M
RPMI-8226 = tested on: RPMI-8226
MOLT-4 = tested on: MOLT-4
ACHN = tested on: ACHN
SNB-19 = tested on: SNB-19
UACC-257 = tested on: UACC-257
CCRF-CEM = tested on: CCRF-CEM
M19-MEL = tested on: M19-MEL
UO-31 = tested on: UO-31
SNB-78 = tested on: SNB-78
SK-OV-3 = tested on: SK-OV-3
SF-268 = tested on: SF-268
XF498 = tested on: XF498
SK-MEL-2 = tested on: SK-MEL-2
SW-620 = tested on: SW-620
NCI-H23 = tested on: NCI-H23
HCC 2998 = tested on: HCC 2998
DMS-114 = tested on: DMS-114
HT-29 = tested on: HT-29
HCT-15 = tested on: HCT-15
786-0 = tested on: 786-0
LXFL 529 = tested on: LXFL 529
RXF 631 = tested on: RXF 631
HOP-18 = tested on: HOP-18
A498 = tested on: A498
SNB-75 = tested on: SNB-75
OVCAR-5 = tested on: OVCAR-5
SR = tested on: SR
RXF 393 = tested on: RXF 393
CAKI-1 = tested on: CAKI-1

Compound: N#C/C(=C\c1ccc(C(O)P(=O)(O)O)cc1)C(N)=O (stereo not given)
- GI50 (SN12C): > 100 µM (inactive)
- GI50 (NCI-H226): > 100 µM (inactive)
- GI50 (M14): > 100 µM (inactive)
- GI50 (A549): > 100 µM (inactive)
- GI50 (OVCAR-3): > 100 µM (inactive)
- GI50 (EKVX): > 100 µM (inactive)
- GI50 (K562): > 100 µM (inactive)
- GI50 (KM12): > 100 µM (inactive)
- GI50 (DLD-1): > 100 µM (inactive)
- GI50 (LOX IMVI): > 100 µM (inactive)
- GI50 (NCI-H460): 6.44 µM (inactive)
- GI50 (SF-295): > 100 µM (inactive)
- GI50 (HOP-62): 73.3 µM (inactive)
- GI50 (UACC-62): 7.83 µM (inactive)
- GI50 (HOP-92): > 100 µM (inactive)
- GI50 (DMS-273): > 100 µM (inactive)
- GI50 (SF-539): 35.3 µM (inactive)
- GI50 (HCT-116): 76.9 µM (inactive)
- GI50 (NCI-H522): > 100 µM (inactive)
- GI50 (U-251): 60.5 µM (inactive)
- GI50 (HL-60): 6.01 µM (inactive)
- GI50 (KM-20L2): > 100 µM (inactive)
- GI50 (COLO 205): > 100 µM (inactive)
- GI50 (IGROV-1): > 100 µM (inactive)
- GI50 (TK-10): > 100 µM (inactive)
- GI50 (OVCAR-4): > 100 µM (inactive)
- GI50 (SK-MEL-28): > 100 µM (inactive)
- GI50 (SK-MEL-5): > 100 µM (inactive)
- GI50 (OVCAR-8): > 100 µM (inactive)
- GI50 (Malme-3M): > 100 µM (inactive)
- GI50 (RPMI-8226): > 100 µM (inactive)
- GI50 (MOLT-4): 24.9 µM (inactive)
- GI50 (ACHN): 14.5 µM (inactive)
- GI50 (SNB-19): > 100 µM (inactive)
- GI50 (UACC-257): > 100 µM (inactive)
- GI50 (CCRF-CEM): 9.93 µM (inactive)
- GI50 (M19-MEL): > 100 µM (inactive)
- GI50 (UO-31): > 100 µM (inactive)
- GI50 (SNB-78): > 100 µM (inactive)
- GI50 (SK-OV-3): > 100 µM (inactive)
- GI50 (SF-268): > 100 µM (inactive)
- GI50 (XF498): > 100 µM (inactive)
- GI50 (SK-MEL-2): > 100 µM (inactive)
- GI50 (SW-620): > 100 µM (inactive)
- GI50 (NCI-H23): > 100 µM (inactive)
- GI50 (HCC 2998): 3.66 µM (inactive)
- GI50 (DMS-114): 17.2 µM (inactive)
- GI50 (HT-29): > 100 µM (inactive)
- GI50 (HCT-15): > 100 µM
- GI50 (786-0): 29.8 µM (inactive)
- GI50 (LXFL 529): > 100 µM (inactive)
- GI50 (RXF 631): > 100 µM (inactive)
- GI50 (HOP-18): > 100 µM (inactive)
- GI50 (A498): > 100 µM (inactive)

Compound: Cc1ccc(C)c(NC(=O)CC2SC(Nc3ccccc3Cl)=NC2=O)c1 (stereo not given)
- GI50 (SN12C): > 100 µM (inactive)
- GI50 (NCI-H226): > 100 µM (inactive)
- GI50 (M14): > 100 µM (inactive)
- GI50 (A549): 65.3 µM (inactive)
- GI50 (OVCAR-3): > 100 µM (inactive)
- GI50 (EKVX): > 100 µM (inactive)
- GI50 (SNB-75): 55.7 µM (inactive)
- GI50 (KM12): > 100 µM (inactive)
- GI50 (DLD-1): 77.4 µM (inactive)
- GI50 (NCI-H460): > 100 µM (inactive)
- GI50 (SF-295): 72.6 µM (inactive)
- GI50 (HOP-62): > 100 µM (inactive)
- GI50 (UACC-62): 49.3 µM (inactive)
- GI50 (HOP-92): 27.7 µM (inactive)
- GI50 (DMS-273): > 100 µM (inactive)
- GI50 (SF-539): > 100 µM (inactive)
- GI50 (OVCAR-5): > 100 µM (inactive)
- GI50 (HCT-116): > 100 µM (inactive)
- GI50 (NCI-H522): 27 µM (inactive)
- GI50 (SR): 8.61 µM (inactive)
- GI50 (U-251): > 100 µM (inactive)
- GI50 (RXF 393): 90.8 µM (inactive)
- GI50 (HL-60): 32.3 µM (inactive)
- GI50 (KM-20L2): > 100 µM (inactive)
- GI50 (COLO 205): > 100 µM (inactive)
- GI50 (IGROV-1): > 100 µM (inactive)
- GI50 (TK-10): > 100 µM (inactive)
- GI50 (OVCAR-4): 65.9 µM (inactive)
- GI50 (SK-MEL-28): > 100 µM (inactive)
- GI50 (SK-MEL-5): 36.1 µM (inactive)
- GI50 (OVCAR-8): > 100 µM (inactive)
- GI50 (Malme-3M): > 100 µM (inactive)
- GI50 (MOLT-4): 81.5 µM (inactive)
- GI50 (ACHN): 71.1 µM (inactive)
- GI50 (SNB-19): > 100 µM (inactive)
- GI50 (UACC-257): 55.3 µM (inactive)
- GI50 (CCRF-CEM): 22.1 µM (inactive)
- GI50 (M19-MEL): 94.4 µM (inactive)
- GI50 (UO-31): 75.9 µM (inactive)
- GI50 (SNB-78): > 100 µM (inactive)
- GI50 (SK-OV-3): > 100 µM (inactive)
- GI50 (SF-268): > 100 µM (inactive)
- GI50 (XF498): > 100 µM (inactive)
- GI50 (SK-MEL-2): > 100 µM (inactive)
- GI50 (SW-620): > 100 µM (inactive)
- GI50 (NCI-H23): 43 µM (inactive)
- GI50 (HCC 2998): > 100 µM (inactive)
- GI50 (CAKI-1): 65.8 µM (inactive)
- GI50 (DMS-114): 29.9 µM (inactive)
- GI50 (HT-29): > 100 µM (inactive)
- GI50 (HCT-15): > 100 µM
- GI50 (786-0): > 100 µM (inactive)
- GI50 (LXFL 529): 74.3 µM (inactive)
- GI50 (RXF 631): > 100 µM (inactive)
- GI50 (HOP-18): > 100 µM (inactive)
- GI50 (A498): > 100 µM (inactive)
